Reference: patent US10106542B2, “Substituted 6,7-dihydropyrazolo[1,5-a]pyrazines as negative allosteric modulators of mGluR2 receptors” (Janssen Pharmaceutica NV, priority 2013, dated 2018)

How the values were obtained:
rats [1] = assay: Reversal of the effect of the mGluR2 PAM JNJ-42153605 on scopolamine-induced hyperlocomotion; format: in vivo; conditions: Rattus norvegicus, 1 h, test compound 60 min before recording, criterion total distance >1500 cm
Method in brief: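 Rats pretreated with test compound or vehicle 60 min before recording, given JNJ-42153605 (20 mg/kg, i.v.) at 30 min prior, then scopolamine (0.16 mg/kg, i.v.) immediately before. Total distance travelled over the first 30 min was video-tracked. All-or-none scoring: reversal >1500 cm, normalization >4400 cm.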

[2] = Ro-4-1284 interaction test in rats; format: in vivo, rat; conditions: rat, in vivo, po; read-out: ED50 effect on body temperature immediately before the injection of Ro-4-1284
Description: (§1) 5) Ro-4-1284 Interaction Test in Rats The relative ability of Co. No. 1 to increase palpebral opening was also studied in rats challenged with another monoamines depleting agent, viz. Ro-4-1284 (1.25 mg/kg, s.c.). Effects on body temperature immediately before the injection of Ro-4-1284 were also measured. The cumulative palpebral opening score (every 5 min over a 1-h period) was used for evaluation. The median cumulative palpebral opening in solvent-pretreated control animals (n=70) was 18; a scores >25 occurred in only 1.4% of these control animals and was adopted as all-or-none criterion for drug-induced reversal of the Ro-4-1284-induced palpebral ptose. Co.

rats [3] = assay: Ro-4-1284 interaction test in rats; format: in vivo, rat; conditions: Rattus norvegicus; p.o.; Ro-4-1284 1.25 mg/kg s.c.; cumulative score over 1 h; read-out: ED50 increase of palpebral opening to scores >25 (reversal of Ro-4-1284-induced palpebral ptose)
Description: as §1

[4] = system: rat hippocampal brain slices; assay: Reversal of mGluR2-agonism (LY-354740-depressed fEPSP) in hippocampal brain slices; format: cell-based
Excerpt: 7) Reversal of mGluR2-Agonism in Hippocampal Brain Slices Introduction
Electrophysiology recordings of field excitatory postsynaptic potentials (fEPSPs) in acute hippocampal brain slices represent a model for testing synaptic transmission and plasticity. The effect of Co. No. 1 on synaptic transmission and plasticity in dentate gyms synapses was investigated using this model.
Recordings of fEPSPs were made from hippocampal brain slices using a multi-electrode array (MEA) biochip, and 3-dimensional-(3D) tip electrodes, according to a standard protocol. These recordings were used to monitor glutamate-mediated synaptic transmission (FIG. 4).

ED50 [2]: > 10 mg/kg
Compound: Cc1cc(-c2cnn3c2C(=O)N(c2ccc(C(F)(F)F)cc2)C[C@@H]3C)ccn1 [compound 1, (7S)-7-Methyl-3-(2-methylpyridin-4-yl)-5-[4-(trifluoromethyl)phenyl]-6,7-dihydropyrazolo[1,5-a]pyrazin-4(5H)-one]
ED50 (rats [1]; Route PO): 0.45 mg/kg
ED50 (rats [1]; Route SC): 3.54 mg/kg
ED50 (rats [3]): 0.51 mg/kg
paired-pulse ratio (PPR) ([4]; 10 μM Co. No. 1 after LY-354740 1 μM): decrease of the PPR
recovery of the LY-354740-induced depression of fEPSP ([4]; 10 μM, fifteen min after application, LY-354740 1 μM, n=17 slices from 4 rats): 80%
